Measured values from publication PMC12416277, “Phytochemical alkaloids orchestrate immunometabolism against viral infections” (National Science Review, 2025).
Read-outs that look alike come from different tables or passages of the source.

Key:
[1] = tested on: A549 cells; assay: Transcriptome analysis (RNA-seq, GO, GSEA) of compound-treated A549 cells
[2] = tested on: HSV-1; assay: microbe, parasite or virus in culture; type: cell-based, herpes simplex virus 1 (HSV-1); conditions: Human alphaherpesvirus 1, A549
[3] = tested on: HSV-1; assay: microbe, parasite or virus in culture; type: cell-based, herpes simplex virus 1 (HSV-1); conditions: Human alphaherpesvirus 1, L929
[4] = tested on: EMCV; assay: microbe, parasite or virus in culture; type: cell-based, encephalomyocarditis virus (EMCV); conditions: Cardiovirus A, A549
[5] = tested on: EMCV; assay: microbe, parasite or virus in culture; type: cell-based, encephalomyocarditis virus (EMCV); conditions: Cardiovirus A, L929
[6] = tested on: H1N1; assay: Dose-response of infectivity, H1N1 in A549 cells (viral mRNA by qRT-PCR); type: cell-based; conditions: Influenza A virus, H1N1, A549
[7] = tested on: VSV; type: cell-based, vesicular stomatitis virus (VSV)
[8] = tested on: H1N1; assay: Dose-response of infectivity, H1N1 in L929 cells; type: cell-based; conditions: Influenza A virus
[9] = tested on: VSV; type: in vivo, C57/BL6J mice; conditions: mice, VSV infection
[10] = tested on: VSV; type: cell-based, vesicular stomatitis virus (VSV); conditions: A549 cells pretreated before infection
[11] = tested on: H1N1; assay: Antiviral effect in normal/serum-free medium during H1N1 infection of A549 cells; type: cell-based, influenza virus A (H1N1); conditions: serum-free conditions
[12] = tested on: H1N1; assay: H1N1 mRNA in A549 cells pretreated with NPC1 inhibitors; type: cell-based, influenza virus A (H1N1); conditions: A549 cells pretreated before infection
[13] = tested on: VSV; type: cell-based, vesicular stomatitis virus (VSV); remark: listed apart in the source
[14] = target: T1, NPC1 (Homo sapiens, UniProt O15118); type: binding; conditions: […]; read-out: SPR KD
T1 sequence (O15118 23-1278): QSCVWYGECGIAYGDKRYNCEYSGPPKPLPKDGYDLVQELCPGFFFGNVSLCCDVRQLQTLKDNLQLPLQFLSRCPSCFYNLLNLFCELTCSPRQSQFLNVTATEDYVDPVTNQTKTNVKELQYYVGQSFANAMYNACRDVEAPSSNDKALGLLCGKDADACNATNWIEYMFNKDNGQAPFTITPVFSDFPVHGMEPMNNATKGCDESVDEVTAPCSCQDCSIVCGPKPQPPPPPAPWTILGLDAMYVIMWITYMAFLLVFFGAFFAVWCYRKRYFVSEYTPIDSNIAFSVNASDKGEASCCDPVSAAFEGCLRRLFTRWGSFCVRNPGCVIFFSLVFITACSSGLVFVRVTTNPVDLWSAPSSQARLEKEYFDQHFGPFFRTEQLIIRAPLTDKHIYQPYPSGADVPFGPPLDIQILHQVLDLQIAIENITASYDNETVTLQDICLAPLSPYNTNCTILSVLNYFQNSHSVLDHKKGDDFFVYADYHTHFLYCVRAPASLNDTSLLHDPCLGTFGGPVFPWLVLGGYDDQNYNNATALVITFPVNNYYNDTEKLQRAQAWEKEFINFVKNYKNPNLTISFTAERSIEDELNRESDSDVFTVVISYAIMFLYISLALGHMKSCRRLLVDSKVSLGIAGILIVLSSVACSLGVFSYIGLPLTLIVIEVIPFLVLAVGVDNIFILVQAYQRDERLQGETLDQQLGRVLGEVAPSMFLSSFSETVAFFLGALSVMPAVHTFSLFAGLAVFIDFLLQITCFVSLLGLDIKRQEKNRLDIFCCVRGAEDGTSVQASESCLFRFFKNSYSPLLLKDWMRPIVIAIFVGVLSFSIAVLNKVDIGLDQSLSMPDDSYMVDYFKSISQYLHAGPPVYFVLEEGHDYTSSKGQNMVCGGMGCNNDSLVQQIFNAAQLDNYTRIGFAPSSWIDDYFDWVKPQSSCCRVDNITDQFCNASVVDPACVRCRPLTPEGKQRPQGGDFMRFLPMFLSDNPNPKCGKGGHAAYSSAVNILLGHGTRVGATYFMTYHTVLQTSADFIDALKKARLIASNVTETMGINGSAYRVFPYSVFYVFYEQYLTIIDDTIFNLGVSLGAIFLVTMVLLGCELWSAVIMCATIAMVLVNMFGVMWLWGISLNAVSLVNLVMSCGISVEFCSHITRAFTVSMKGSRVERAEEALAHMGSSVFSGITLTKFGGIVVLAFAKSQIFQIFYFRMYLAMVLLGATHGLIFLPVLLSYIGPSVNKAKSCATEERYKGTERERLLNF

Compound	GSEA NES, Sterol metabolic process ([1]; A549 cells, 10 µM, 24 h)	EC50 [2]	EC50 [3]	EC50 [4]	EC50 [5]	EC50 [6]	VSV replication (VSV-G protein, immunoblotting) [7]	EC50 [8]	VSV replication [10]	H1N1 replication [12]	further results
COc1cc2c3cc1Oc1c(OC)c(OC)cc4c1[C@@H](Cc1ccc(O)c(c1)Oc1ccc(cc1)C[C@@H]3N(C)CC2)N(C)CC4 [Bbm, berbamine]	2.29	3.27 µM	0.36 µM	0.107 µM	1.5 µM	0.606 µM	inhibited	2.65 µM			GSEA NES, Response to virus ([1]; A549 cells, 10 µM, 24 h): 1.34
COc1ccc2cc1Oc1ccc(cc1)C[C@H]1c3c(cc4c(c3Oc3cc5c(cc3OC)CCN(C)[C@@H]5C2)OCO4)CCN1C [Cep, cepharanthine]	2.19	3.16 µM	0.569 µM	2.09 µM	0.998 µM	0.11 µM	inhibited	3.84 µM			GSEA NES, Innate immune response ([1]; A549 cells, 10 µM, 24 h): 1.25
Cc1ccc2c(=O)c3cccc(CC(=O)O)c3oc2c1C [DMXAA]											IL-6 level in serum [9]: markedly decreased; TNF-α level in serum [9]: markedly decreased
COc1ccc2cc1Oc1ccc(cc1)C[C@H]1c3cc(c(OC)cc3CCN1C)Oc1c(O)c(OC)cc3c1[C@H](C2)N(C)CC3 [Fan, fangchinoline]	2.04	2.55 µM	2.32 µM	0.821 µM	1.36 µM	0.794 µM	inhibited	0.537 µM			GSEA NES, Response to type I interferon ([1]; A549 cells, 10 µM, 24 h): 2.27; expression of antiviral immune-related genes ([1]; WT A549 cells, compared among Tet, Fan, Cep, Bbm): higher expression
CCN(CC)CCO[C@H]1CC[C@@]2(C)C(=CC[C@@H]3[C@@H]2CC[C@]2(C)C(=O)CC[C@@H]32)C1 [U18666A]									effectively blocked	effectively blocked	antiviral effect on H1N1 entry [11]: diminished; antiviral effect on VSV entry ([13]; MβCD pretreatment (cholesterol depleted)): abolished; antiviral effect on VSV entry ([13]; cholesterol supplementation using MβCD-cholesterol): restored inhibition
CN(C)CCCN1c2ccccc2CCc2ccccc21 [imipramine]									effectively blocked	effectively blocked	
CCC(C)n1ncn(-c2ccc(N3CCN(c4ccc(OCC5COC(Cn6cncn6)(c6ccc(Cl)cc6Cl)O5)cc4)CC3)cc2)c1=O (stereo not drawn) [itraconazole]									effectively blocked	effectively blocked	Kd [14]: 8.76 µM
CC[C@@H]([C@H](C)O)n1ncn(-c2ccc(N3CCN(c4ccc(OC[C@@H]5CO[C@@](Cn6cncn6)(c6ccc(F)cc6F)C5)cc4)CC3)cc2)c1=O [posaconazole]									effectively blocked	effectively blocked	
